Measured values published in patent publication US20110301079A1, “NEUROMEDIN U RECEPTOR AGONISTS AND USES THEREOF” (Instituto di Ricerche di Biologia Molecolare P. Angeletti …, priority 2007, published 2011).
Residues, ends and D or L forms follow the SMILES beside them. *: point of attachment. X1 = CC(C)CCC[C@@H](C)[C@H]1CC[C@H]2[C@@H]3CC=C4C[C@@H](OC(=O)C*)CC[C@]4(C)[C@H]3CC[C@]12C

Experiments:
human NMUR1 = target: T1, human NMUR1 (Homo sapiens, UniProt Q9HB89); test: FLIPR calcium mobilization assay, human NMUR1-expressing cell line; type: cell-based; details: for % Activity: human NMUR1, maximum response at 1 μM compared to the human NMU-25 response at the same concentration
T1 construct: expressed in transfected cells; host or cells: FLP-In CHO cells and HEK-293 FLP-In cells (pcDNA5)
T1 sequence (Q9HB89 1-426): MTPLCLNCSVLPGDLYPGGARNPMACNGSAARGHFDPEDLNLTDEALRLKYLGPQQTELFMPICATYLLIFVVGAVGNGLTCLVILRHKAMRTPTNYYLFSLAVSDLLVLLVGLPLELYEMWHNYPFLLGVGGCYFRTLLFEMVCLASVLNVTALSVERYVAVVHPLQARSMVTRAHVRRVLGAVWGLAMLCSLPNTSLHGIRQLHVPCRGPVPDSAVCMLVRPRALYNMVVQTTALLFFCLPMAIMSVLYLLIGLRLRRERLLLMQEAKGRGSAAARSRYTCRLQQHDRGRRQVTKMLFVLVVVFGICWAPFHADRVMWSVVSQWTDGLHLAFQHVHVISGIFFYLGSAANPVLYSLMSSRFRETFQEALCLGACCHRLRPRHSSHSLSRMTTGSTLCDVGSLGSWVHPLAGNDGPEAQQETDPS
Text: (§1) Human, mouse or rat cDNAs encoding NMUR1 or NMUR2 (as described in Howard et al. Nature 406: 70-74 (2000) were subcloned in pcDNA5 (Invitrogen) and transfected into FLP-In CHO cells and HEK-293 FLP-In cells purchased from Invitrogen (Carlsbad, Calif.) using lipofectamine (Invitrogen). The Flp-In system allows integration and expression of a particular gene of interest at a specific genomic location utilizing the Flp recombinase from yeast. The transfected cells were selected by growth in medium containing 200 μg/mL hygromycin (Invitrogen). Populations were frozen at early passage numbers, and these stocks were used for further studies. Stable clones that expressed the mRNAs were identified functionally by FLIPR as well as by RT-PCR. […] Two different rodent NMUR1 cell lines were thus generated: one with the codon as predicted from the genomic databases and another cell line with an engineered methionine (ATG) as the start codon. The dog NMU receptors were also cloned from intestine RNA (NMUR1) and brain (NMUR2) and stable cell lines were generated as used for the human and rodent cell lines. […] To ensure high levels of expression in a heterologous system, a dog NMUR1 cell line was generated that contains an ATG as the start codon. Additionally, stable cell lines expressing the human receptors were generated in HEK-293/aeq 17 cells which stably express the aequorin gene under the CMV promoter. The human NMUR2 cDNA was cloned into pcDNA3.1 and human NMUR1 was subcloned into pIRES-puro (Clontech, Mountain View, Calif.), after transfection cells were selected in media containing G418 and either hygromycin (NMUR2) or puromycin (NMUR1).
(§2) The NMU receptors signal primarily through Gαq/11 proteins; therefore calcium mobilization assays can be utilized for functional activity.
(§3) Stable cell lines expressing human and or rodent NMUR1 or human NMUR2 receptors are plated at a density of 12,000 cells per well overnight on poly-lysine coated 384-well black-walled plates. The following day, the media is removed from the plates and the cells were subsequently loaded with Fluo-3 (Molecular Probes), a calcium sensitive dye, diluted in FLIPR buffer (1× Hank's buffered saline containing 20 mM HEPES, 0.1% BSA, 2.5 mM probenecid (Sigma) and 1.6 mM TR40). All reagents are from Invitrogen unless otherwise noted. Peptide stocks are resuspended in DMSO at a stock concentration of 2 mM and diluted in FLIPR buffer on the day of the experiment to a 4 μM working stock solution.
(§4) After a 90 minute incubation at room-temperature, cell plates are loaded onto a FLIPR (Molecular Devices) to monitor cellular fluorescence (excitation=488 nm; emission=540 nm) before and after compound/peptide addition. Eight to twelve point dose responses are tested on NMUR-expressing cell lines using FLIPR with 1 μM peptide as the highest dose. The response after peptide addition is taken as the maximum fluorescence units minus the fluorescence immediately prior to stimulation for each well. EC50 values are calculated using GraphPad Prism (San Diego, Calif.) software.
(§5) Percent activity refers to the maximum response at 1 μM compared to the human NMU-25 response at the same concentration.

human NMUR2 = target: T2, human NMUR2 (Homo sapiens, UniProt Q9GZQ4); test: FLIPR calcium mobilization assay, human NMUR2-expressing cell line; type: cell-based; details: for % Activity: human NMUR2, maximum response at 1 μM compared to the human NMU-25 response at the same concentration
T2 construct: expressed in transfected cells; host or cells: FLP-In CHO cells and HEK-293 FLP-In cells (pcDNA5)
Text: as §1, §2, §3, §4, §5

mouse NMUR1-ATG = target: T3, mouse NMUR1-ATG (Mus musculus, UniProt O55040); test: FLIPR calcium mobilization assay, mouse NMUR1-ATG cell line; type: cell-based; details: for % Activity: maximum response at 1 μM compared to the human NMU-25 response at the same concentration
T3 construct: expressed in transfected cells; host or cells: FLP-In CHO cells and HEK-293 FLP-In cells (pcDNA5)
T3 sequence (O55040 1-428): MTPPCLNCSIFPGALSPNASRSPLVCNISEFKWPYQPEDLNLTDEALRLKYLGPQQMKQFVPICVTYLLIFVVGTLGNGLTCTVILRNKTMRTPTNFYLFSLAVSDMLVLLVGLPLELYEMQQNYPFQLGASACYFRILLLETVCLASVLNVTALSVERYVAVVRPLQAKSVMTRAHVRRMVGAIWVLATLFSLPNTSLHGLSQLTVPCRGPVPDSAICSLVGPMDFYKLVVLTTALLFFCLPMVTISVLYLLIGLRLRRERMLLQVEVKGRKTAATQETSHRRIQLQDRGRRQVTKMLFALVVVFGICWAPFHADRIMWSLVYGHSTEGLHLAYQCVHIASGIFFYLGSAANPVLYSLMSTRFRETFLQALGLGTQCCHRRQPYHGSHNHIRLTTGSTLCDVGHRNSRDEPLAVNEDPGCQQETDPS
Text: as §1, §2, §3, §4, §5

mouse NMUR2 = target: T4, mouse NMUR2 (Mus musculus, UniProt Q8BZ39); test: FLIPR calcium mobilization assay, mouse NMUR2 cell line; type: cell-based; details: for % Activity: mouse NMUR2, maximum response at 1 μM compared to the human NMU-25 response at the same concentration
T4 construct: expressed in transfected cells; host or cells: FLP-In CHO cells and HEK-293 FLP-In cells (pcDNA5)
Text: as §1, §2, §3, §4, §5

dog NMUR1-ATG = test: FLIPR calcium mobilization assay, dog NMUR1-ATG cell line; type: cell-based; details: for EC50: FLIPR; for % Activity: maximum response at 1 μM compared to the human NMU-25 response at the same concentration
Text: as §1, §2, §3, §4, §5

dog NMUR2 = target: T5, dog NMUR2 (Canis lupus familiaris, UniProt A0A8I3MN59); test: FLIPR calcium mobilization assay, dog NMUR2 cell line; type: cell-based; details: for % Activity: dog NMUR2, maximum response at 1 μM compared to the human NMU-25 response at the same concentration
T5 construct: expressed in transfected cells
Text: as §1, §2, §3, §4, §5

mice = test: Acute subcutaneous administration of NMS analogs, daily food intake and body weight; type: in vivo; details: for food intake: lipidated analogs compared to NMS1, FIG. 10A; for body weight: lipidated analogs compared to NMS1, FIG. 10B

T5 sequence (A0A8I3MN59 1-378): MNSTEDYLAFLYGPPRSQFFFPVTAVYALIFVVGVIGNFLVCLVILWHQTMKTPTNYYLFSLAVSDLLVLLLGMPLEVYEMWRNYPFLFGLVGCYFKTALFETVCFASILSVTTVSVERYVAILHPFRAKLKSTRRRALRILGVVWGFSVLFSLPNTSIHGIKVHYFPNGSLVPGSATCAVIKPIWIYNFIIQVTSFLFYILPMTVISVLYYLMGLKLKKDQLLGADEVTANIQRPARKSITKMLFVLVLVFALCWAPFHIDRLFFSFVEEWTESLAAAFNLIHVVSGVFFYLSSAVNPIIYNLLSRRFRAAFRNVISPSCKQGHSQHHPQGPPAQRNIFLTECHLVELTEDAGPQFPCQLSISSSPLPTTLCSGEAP
T2 sequence (Q9GZQ4 whole entry): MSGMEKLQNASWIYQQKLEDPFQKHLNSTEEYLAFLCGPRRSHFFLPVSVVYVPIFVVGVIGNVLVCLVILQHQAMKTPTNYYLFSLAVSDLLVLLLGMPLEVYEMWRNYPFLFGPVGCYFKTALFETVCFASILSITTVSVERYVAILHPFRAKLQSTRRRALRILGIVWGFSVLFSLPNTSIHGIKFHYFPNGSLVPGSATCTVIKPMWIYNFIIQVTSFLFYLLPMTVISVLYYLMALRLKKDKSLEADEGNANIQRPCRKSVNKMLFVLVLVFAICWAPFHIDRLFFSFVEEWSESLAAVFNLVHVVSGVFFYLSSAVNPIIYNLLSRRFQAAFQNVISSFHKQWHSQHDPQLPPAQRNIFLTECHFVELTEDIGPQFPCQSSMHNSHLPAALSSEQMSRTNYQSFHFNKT
T4 sequence (Q8BZ39 whole entry): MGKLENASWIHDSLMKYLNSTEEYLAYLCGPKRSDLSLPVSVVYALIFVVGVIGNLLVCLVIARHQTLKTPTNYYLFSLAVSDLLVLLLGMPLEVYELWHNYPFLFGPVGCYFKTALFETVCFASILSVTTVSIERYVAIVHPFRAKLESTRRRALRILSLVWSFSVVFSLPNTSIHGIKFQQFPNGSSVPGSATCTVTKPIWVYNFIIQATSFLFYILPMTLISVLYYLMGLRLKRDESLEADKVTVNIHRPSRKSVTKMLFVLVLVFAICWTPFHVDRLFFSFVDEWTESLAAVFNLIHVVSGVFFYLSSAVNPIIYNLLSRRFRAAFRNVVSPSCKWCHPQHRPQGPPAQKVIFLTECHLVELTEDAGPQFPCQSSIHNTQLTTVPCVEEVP

SMILES	EC50 (human NMUR1; human NMUR1, FLIPR)	% Activity (human NMUR1)	EC50 (human NMUR2; human NMUR2, FLIPR)	% Activity (human NMUR2)	EC50 (mouse NMUR1-ATG; FLIPR)	% Activity (mouse NMUR1-ATG)	EC50 (mouse NMUR2; mouse NMUR2, FLIPR)	% Activity (mouse NMUR2)	EC50 (dog NMUR1-ATG)	% Activity (dog NMUR1-ATG)	EC50 (dog NMUR2; dog NMUR2, FLIPR)	% Activity (dog NMUR2)	food intake (mice)	body weight (mice)
CCCCCCCCCCCCCCCC(=O)N[C@H](C(=O)N[C@@H](CC(C)C)C(=O)N[C@@H](CCC(N)=O)C(=O)N[C@@H](CCCNC(=N)N)C(=O)NCC(=O)N[C@@H](CO)C(=O)NCC(=O)N[C@H](C(=O)N[C@@H](C)C(=O)N[C@@H](C)C(=O)N[C@H](C(=O)N[C@@H](CC(=O)O)C(=O)N[C@@H](Cc1ccccc1)C(=O)N[C@H](C(=O)N[C@@H](CCCCN)C(=O)N[C@@H](CCCCN)C(=O)N[C@@H](CC(=O)O)C(=O)N[C@@H](Cc1c[nH]cn1)C(=O)N[C@H](C(=O)N[C@@H](C)C(=O)N[C@H](C(=O)N[C@@H](Cc1c[nH]c2ccccc12)C(=O)NCC(=O)N[C@@H](CCCNC(=N)N)C(=O)N1CCC[C@H]1C(=O)N[C@@H](Cc1ccccc1)C(=O)N[C@@H](Cc1ccccc1)C(=O)N[C@@H](CC(C)C)C(=O)N[C@@H](Cc1ccccc1)C(=O)N[C@@H](CCCNC(=N)N)C(=O)N1CCC[C@H]1C(=O)N[C@@H](CCCNC(=N)N)C(=O)N[C@@H](CC(N)=O)C(N)=O)[C@@H](C)O)[C@@H](C)O)[C@@H](C)O)C(C)C)[C@@H](C)O)[C@@H](C)CC [NMS5] (HELM PEPTIDE1{[CCCCCCCCCCCCCCCC(=O)[*:2]].I.L.Q.R.G.S.G.T.A.A.V.D.F.T.K.K.D.H.T.A.T.W.G.R.P.F.F.L.F.R.P.R.N.[am]}$$$$V2.0)	248 nM	85%	214 nM	93%	12.5 nM	83%	40.1 nM	78%	≥ 1000 nM	82%	18.8 nM	100%	significantly reduce	significantly reduce
CC[C@H](C)[C@H](NC(=O)[C@H](CSCC(=O)O[C@H]1CC[C@@]2(C)C(=CC[C@H]3[C@@H]4CC[C@H]([C@H](C)CCCC(C)C)[C@@]4(C)CC[C@@H]32)C1)NC(C)=O)C(=O)N[C@@H](CC(C)C)C(=O)N[C@@H](CCC(N)=O)C(=O)N[C@@H](CCCNC(=N)N)C(=O)NCC(=O)N[C@@H](CO)C(=O)NCC(=O)N[C@H](C(=O)N[C@@H](C)C(=O)N[C@@H](C)C(=O)N[C@H](C(=O)N[C@@H](CC(=O)O)C(=O)N[C@@H](Cc1ccccc1)C(=O)N[C@H](C(=O)N[C@@H](CCCCN)C(=O)N[C@@H](CCCCN)C(=O)N[C@@H](CC(=O)O)C(=O)N[C@@H](Cc1c[nH]cn1)C(=O)N[C@H](C(=O)N[C@@H](C)C(=O)N[C@H](C(=O)N[C@@H](Cc1c[nH]c2ccccc12)C(=O)NCC(=O)N[C@@H](CCCNC(=N)N)C(=O)N1CCC[C@H]1C(=O)N[C@@H](Cc1ccccc1)C(=O)N[C@@H](Cc1ccccc1)C(=O)N[C@@H](CC(C)C)C(=O)N[C@@H](Cc1ccccc1)C(=O)N[C@@H](CCCNC(=N)N)C(=O)N1CCC[C@H]1C(=O)N[C@@H](CCCNC(=N)N)C(=O)N[C@@H](CC(N)=O)C(N)=O)[C@@H](C)O)[C@@H](C)O)[C@@H](C)O)C(C)C)[C@@H](C)O [NMS2] (Ac-C(X1)ILQRGSGTAAVDFTKKDHTATWGRPFFLFRPRN-NH2)	–	11%	–	16%	–	39%	–	32%	≥ 1000 nM	46%	–	84%	significantly reduce	significantly reduce
